Publication PMC4171207 (Antiviral research, 2014)
Where a name gives a salt, the structure may show the parent alone. Read-outs that look alike come from different tables or passages of the source. Marks after values point to notes of the source that are not given here.

Tests used:
[1] = tested on: 5-FU catabolism; assay: LC-MS/MS analysis of 5-fluorouracil metabolism in mice; type: in vivo, BALB/c mice; details: for 5-FU concentration in plasma: 5-FU 30 mg/kg i.v. plus test drug 10 mg/kg p.o.
[2] = tested on: human foreskin fibroblasts (HFFs); assay: Neutral red cytotoxicity assay in HFFs; type: cell-based
[3] = tested on: VZV-BAC-Luc; type: in vivo, varicella-zoster virus; details: SCID-Hu mice
[4] = tested on: VZV-BAC-Luc; assay: VZV-BAC-Luc in skin organ culture; type: cell-based, varicella-zoster virus; details: read-out: EC50 in SOC; 6 dpi, bioluminescence imaging, mean ± SD
[5] = tested on: VZV-BAC-Luc; assay: VZV yield in HFFs by quantitative real-time PCR; type: cell-based, varicella-zoster virus
[6] = for Ratio to Plasma: 2 h post final treatment
[7] = tested on: VZV-BAC-Luc; assay: microbe, parasite or virus in culture; type: cell-based, varicella-zoster virus; details: for SI (CC50/EC50): selectivity index in HFFs
[8] = tested on: VZV-BAC-Luc; assay: Drug synergy assay; type: cell-based, varicella-zoster virus; details: HFFs, 48 h, VZV yield by bioluminescence

O=c1[nH]cc(F)c(=O)[nH]1 [5-FU, 5-fluorouracil]
5-FU in plasma (average AUC) ([1]; 30 min, 5-FU alone 30 mg/kg i.v.): 1246 nM | 5-FU in plasma ([1]; 60 min, 5-FU alone 30 mg/kg i.v.): undetectable

Nc1nc2c(ncn2COCCO)c(=O)[nH]1 [ACV, Acyclovir, reference compound]
Mortality (120 mg/kg/day): 0/11

O=c1[nH]c(=O)n([C@H]2C[C@H](O)[C@@H](CO)O2)cc1/C=C/Br [BVdU, (E)-5-(2-Bromovinyl)-2′-deoxyuridine]
5-FU concentration in plasma ([1]; 30 min): 945 nM | 5-FU concentration in plasma ([1]; 60 min): 685 nM | effect on 5-FU catabolism ([1]; mice, 10 mg/kg p.o. with 5-FU 30 mg/kg i.v.): interfered with 5-FU catabolism

O=c1ccn(C2OC(CO)OC2/C=C/Br)c(=O)[nH]1 [L-BHDU (1), β-L-1-[5-(E-2-Bromovinyl)-2-(hydroxymethyl)-1,3-(dioxolan-4-yl)] uracil]
Mortality (8 mg/kg/day): 1/5 | Mortality (15 mg/kg/day): 0/5 | Mortality (150 mg/kg/day): 0/5 | overt toxicity in vivo (mouse, in vivo): No overt toxicity | weight loss (mouse, in vivo): moderate weight loss | cytotoxicity at 200 μM ([2]; 200 μM, 3 days): noncytotoxic | CC50 ([2]; 72 h, neutral red assay): > 200000 nM | Ave. VZV Growth Rate (± SD) ([3]; 8 mg/kg/day oral gavage): 0.33 (0.03) Log10(photons/s/day) | Ave. VZV Growth Rate (± SD) ([3]; 8 mg/kg/day oral gavage, listed as L-BHDU): 0.33 ± 0.03 Log10(photons/s/day) | Ave. VZV Growth Rate (± SD) ([3]; 15 mg/kg/day oral gavage): 0.25 (0.09) ^* Log10(photons/s/day) | Ave. VZV Growth Rate (± SD) ([3]; 15 mg/kg/day oral gavage, listed as L-BHDU): 0.25 ± 0.9 Log10(photons/s/day) | Ave. VZV Growth Rate (± SD) ([3]; 150 mg/kg/day oral gavage): 0.22 (0.06) ^* Log10(photons/s/day) | Ave. VZV Growth Rate (± SD) ([3]; 150 mg/kg/day oral gavage, listed as L-BHDU): 0.22 ± 0.6 Log10(photons/s/day) | EC50 [4]: 240 ± 20 nM | VZV genome copy number [5]: reduced VZV genome copy number | EC50 ([5]; read-out: EC50 determined by qPCR, VZV genomes): ~70 nM | concentration in human skin implants relative to EC50 ([6]; 8 mg/kg/day): 10 fold | Ratio to Plasma ([6]; Brain, 8 mg/kg/day): 0.4 (0.3) | Ratio to Plasma ([6]; Brain, 150 mg/kg/day): 0.1 (0.03) | Ratio to Plasma ([6]; Heart, 8 mg/kg/day): 2.9 (2.5) | Ratio to Plasma ([6]; Heart, 150 mg/kg/day): 1.0 (0.2) | Ratio to Plasma ([6]; Kidney, 8 mg/kg/day): 5.1 (3.1) | Ratio to Plasma ([6]; Kidney, 150 mg/kg/day): 2.1 (0.4) | Ratio to Plasma ([6]; Liver, 8 mg/kg/day): 4.5 (1.1) | Ratio to Plasma ([6]; Liver, 150 mg/kg/day): 1.5 (0.3) | Ratio to Plasma ([6]; Lung, 8 mg/kg/day): 11.2 (5.7) | Ratio to Plasma ([6]; Lung, 150 mg/kg/day): 2.3 (0.5) | Ratio to Plasma ([6]; Plasma, 8 mg/kg/day): 1 | Ratio to Plasma ([6]; Plasma, 150 mg/kg/day): 1 | Ratio to Plasma ([6]; Skin (Human) xenograft, 8 mg/kg/day): 3.1 (2.6) | Ratio to Plasma ([6]; Skin (Mouse), 8 mg/kg/day): 3.0 (2.5) | Ratio to Plasma ([6]; Skin (Mouse), 150 mg/kg/day): 0.9 (0.2) | Ratio to Plasma ([6]; Spleen, 8 mg/kg/day): 2.1 (1.3) | Ratio to Plasma ([6]; Spleen, 150 mg/kg/day): 1.4 (0.2) | EC50 ([7]; read-out: EC50 in HFFs, 48 hpi, bioluminescence imaging, mean ± SD): 220 ± 10 nM | SI (CC50/EC50) [7]: >909 | SI (CC50/EC50) ([7]; listed as L-BHDU): > 909 | interaction with ACV, BVdU and PFA [8]: antagonized the activity of ACV, BVdU and foscarnet

O=C(O)P(=O)(O)O [PFA, sodium phosphonoformate tribasic hexahydrate, reference compound]
EC50 ([7]; Human alphaherpesvirus 3, read-out: EC50 in HFFs): 40000 nM

CC(C)[C@H](N)C(=O)OCCOCn1cnc2c(=O)[nH]c(N)nc21 [VACV, Valacyclovir HCl, reference compound]
ABWD (±SD), Average Body Weight Difference from Days 0–7 (120 mg/kg/day): −2.9 (1.2) ^* grams | Mortality (120 mg/kg/day): 0/11 | ABWD (±SD), Average Body Weight Difference from Days 0–7 (200 mg/kg/day): −3.6 (1.5) ^* grams | Mortality (200 mg/kg/day): 0/10 | Ave. VZV Growth Rate (± SD) ([3]; 120 mg/kg/day oral gavage): 0.40 (0.09) Log10(photons/s/day) | effect on VZV replication ([3]; 120 mg/kg/day): had no effect on VZV replication | Ave. VZV Growth Rate (± SD) ([3]; 200 mg/kg/day oral gavage): 0.27 (0.07) ^* Log10(photons/s/day) | Ave. VZV Growth Rate (± SD) ([3]; 200 mg/kg/day oral gavage, listed as Valacyclovir): 0.27 ± 0.07 Log10(photons/s/day)
